Reference: ChEMBL document CHEMBL4002586, “Aurone Mannich base derivatives as promising multifunctional agents with acetylcholinesterase inhibition, anti-β-amyloid aggragation and neuroprotective properties for the treatment of Alzheimer's disease” (Eur J Med Chem, 2017)
Calls of active or inactive are those of the source. The calls are words filed in the database; no cut-off is given here.

Experiments:
Acetylcholinesterase [1] = molecular target: T1, Acetylcholinesterase (Rattus norvegicus, UniProt P37136); test: Inhibition of AChE in rat brain cortex homogenates using acetylthiocholine iodide as substrate in presence of BuChE inhibitor tetraisopropyl pyrophosphoramide measured after 15 mins by Ellman's method
T1 sequence (P37136 whole entry): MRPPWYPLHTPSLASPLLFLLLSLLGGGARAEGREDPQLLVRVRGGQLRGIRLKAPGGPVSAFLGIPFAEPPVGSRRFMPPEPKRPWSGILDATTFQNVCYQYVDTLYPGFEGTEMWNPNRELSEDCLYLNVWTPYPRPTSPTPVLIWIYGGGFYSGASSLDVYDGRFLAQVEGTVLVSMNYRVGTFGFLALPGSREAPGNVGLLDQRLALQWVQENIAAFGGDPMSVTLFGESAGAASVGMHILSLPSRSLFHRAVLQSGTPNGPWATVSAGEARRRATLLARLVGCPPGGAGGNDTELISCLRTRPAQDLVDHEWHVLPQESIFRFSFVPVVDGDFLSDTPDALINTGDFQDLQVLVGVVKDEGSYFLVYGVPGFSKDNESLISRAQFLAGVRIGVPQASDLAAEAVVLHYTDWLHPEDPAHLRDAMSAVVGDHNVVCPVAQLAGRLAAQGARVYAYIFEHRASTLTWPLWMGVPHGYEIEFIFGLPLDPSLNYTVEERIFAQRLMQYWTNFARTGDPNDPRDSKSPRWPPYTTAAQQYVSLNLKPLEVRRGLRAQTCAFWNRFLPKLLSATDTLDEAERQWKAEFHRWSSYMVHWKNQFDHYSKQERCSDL

Acetylcholinesterase [2] = molecular target: T2, Acetylcholinesterase (Electrophorus electricus, UniProt O42275); test: Inhibition of Electrophorus electricus AChE using acetylthiocholine iodide as substrate measured after 15 mins by Ellman's method
Acetylcholinesterase [3] = molecular target: Acetylcholinesterase (Homo sapiens, UniProt P22303); test: Inhibition of human erythrocyte AChE using acetylthiocholine iodide as substrate measured after 15 mins by Ellman's method
[4] = molecular target: butyrylcholinesterase (BuChE) (Rattus norvegicus, UniProt Q9JKC1); test: Inhibition of BuChE in rat serum at 50 uM using butyrylthiocholine as substrate measured after 15 mins by Ellman's method relative to control; conditions: probe butyrylthiocholine
Acetylcholinesterase [5] = molecular target: T2, Acetylcholinesterase; test: Mixed-type inhibition of Electrophorus electricus AChE pretreated for 15 mins followed by varying levels of acetylthiocholine iodide substrate addition by Lineweaver-Burk plot analysis
[6] = Antioxidant activity assessed as inhibition of AAPH-induced peroxyl radical generation at 5 uM measured as trolox equivalent preincubated for 15 mins followed by AAPH addition measured every 60 secs for 90 mins by ORAC-FL assay; assay type: functional
PC-12 [7] = test: Cytotoxicity against rat PC12 cells at <50 uM measured after 48 hrs by MTT assay; assay type: cell-based; conditions: pc-12, 48 h
PC-12 [8] = test: Neuroprotective activity against H2O2-induced damage in rat PC12 cells assessed as increase in cell viability at 1 to 50 uM pretreated for 2 hrs followed by H2O2 challenge measured after 24 hrs by MTT assay; assay type: functional, cell-based
PC-12 [9] = test: Neuroprotective activity against H2O2-induced damage in rat PC12 cells assessed as reduction in LDH release at 0.1 to 50 uM pretreated for 2 hrs followed by H2O2 challenge measured after 24 hrs; assay type: functional, cell-based
[10] = Metal chelating activity assessed as compound-Zn2+ complex formation at 37.5 uM in presence of ZnCl2 after 30 mins by UV-visible spectrophotometric analysis; assay type: functional
[11] = Metal chelating activity assessed as compound-Cu2+ complex formation at 37.5 uM in presence of CuCl2 after 30 mins by UV-visible spectrophotometric analysis; assay type: functional
[12] = Metal chelating activity assessed as compound-Al3+ complex formation at 37.5 uM in presence of AlCl3 after 30 mins by UV-visible spectrophotometric analysis; assay type: functional
[13] = Metal chelating activity assessed as compound-Fe2+ complex formation at 37.5 uM in presence of FeSO4 after 30 mins by UV-visible spectrophotometric analysis; assay type: functional
[14] = Metal chelating activity assessed as mole fraction of compound required to show 2:1 stoichiometry for Cu2+-compound complex at 37.5 uM after 30 mins by UV-vis spectrophotometric method; assay type: functional
[15] = molecular target: Amyloid-beta precursor protein (Homo sapiens) (UniProt P05067); test: Inhibition of self-induced aggregation of HFIP-treated human amyloid beta (1 to 42 residues) at 25 uM after 24 hrs by thioflavin T-based fluorometric assay relative to control
[16] = Inhibition of Cu2+-mediated aggregation of human amyloid beta (1 to 42 residues) at 25 uM after 24 hrs by thioflavin T-based fluorometric assay relative to control; assay type: functional
[17] = molecular target: T3, Amine oxidase [flavin-containing] A (Homo sapiens, UniProt P21397); test: Inhibition of recombinant human MAO-A expressed in baculovirus infected BTI insect cells at 10 uM using kynuramine as substrate incubated for 30 mins by fluorescence assay relative to control; conditions: 0.5 h
T3 sequence (P21397 whole entry): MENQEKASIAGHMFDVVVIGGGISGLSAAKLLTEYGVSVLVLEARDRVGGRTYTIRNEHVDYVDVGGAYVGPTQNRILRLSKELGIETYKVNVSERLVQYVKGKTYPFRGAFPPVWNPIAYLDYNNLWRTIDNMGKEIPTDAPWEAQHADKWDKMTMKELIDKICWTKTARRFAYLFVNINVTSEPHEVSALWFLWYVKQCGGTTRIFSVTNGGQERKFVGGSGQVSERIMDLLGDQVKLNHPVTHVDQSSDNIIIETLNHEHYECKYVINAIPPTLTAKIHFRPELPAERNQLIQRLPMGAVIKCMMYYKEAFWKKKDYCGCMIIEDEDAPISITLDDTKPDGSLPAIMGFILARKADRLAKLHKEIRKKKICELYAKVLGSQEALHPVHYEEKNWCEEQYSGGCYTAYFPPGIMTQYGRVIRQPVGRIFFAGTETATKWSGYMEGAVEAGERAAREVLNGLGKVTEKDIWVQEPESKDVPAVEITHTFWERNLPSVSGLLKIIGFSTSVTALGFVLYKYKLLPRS

[18] = molecular target: T4, Amine oxidase [flavin-containing] B (Homo sapiens, UniProt P27338); test: Inhibition of recombinant human MAO-B expressed in baculovirus infected BTI insect cells at 10 uM using kynuramine as substrate incubated for 30 mins by fluorescence assay relative to control; conditions: 0.5 h
T4 sequence (P27338 whole entry): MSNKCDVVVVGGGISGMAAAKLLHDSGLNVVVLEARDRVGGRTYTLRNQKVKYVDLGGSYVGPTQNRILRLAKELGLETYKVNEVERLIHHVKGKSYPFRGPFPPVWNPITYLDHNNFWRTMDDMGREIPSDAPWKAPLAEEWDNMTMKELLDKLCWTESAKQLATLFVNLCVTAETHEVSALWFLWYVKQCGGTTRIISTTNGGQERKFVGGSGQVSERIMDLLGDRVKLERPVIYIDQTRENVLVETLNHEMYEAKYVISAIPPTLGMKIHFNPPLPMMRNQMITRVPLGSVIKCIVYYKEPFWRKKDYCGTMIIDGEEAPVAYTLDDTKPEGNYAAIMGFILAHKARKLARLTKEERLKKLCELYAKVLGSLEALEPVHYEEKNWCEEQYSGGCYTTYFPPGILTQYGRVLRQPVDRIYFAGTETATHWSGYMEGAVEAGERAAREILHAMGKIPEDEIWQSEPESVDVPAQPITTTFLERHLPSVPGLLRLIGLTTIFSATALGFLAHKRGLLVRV

[19] = Permeability of compound at 100 ug/ml after 18 hrs by PAMPA; assay type: physicochemical; conditions: read-out: permeability

T2 sequence (O42275 whole entry): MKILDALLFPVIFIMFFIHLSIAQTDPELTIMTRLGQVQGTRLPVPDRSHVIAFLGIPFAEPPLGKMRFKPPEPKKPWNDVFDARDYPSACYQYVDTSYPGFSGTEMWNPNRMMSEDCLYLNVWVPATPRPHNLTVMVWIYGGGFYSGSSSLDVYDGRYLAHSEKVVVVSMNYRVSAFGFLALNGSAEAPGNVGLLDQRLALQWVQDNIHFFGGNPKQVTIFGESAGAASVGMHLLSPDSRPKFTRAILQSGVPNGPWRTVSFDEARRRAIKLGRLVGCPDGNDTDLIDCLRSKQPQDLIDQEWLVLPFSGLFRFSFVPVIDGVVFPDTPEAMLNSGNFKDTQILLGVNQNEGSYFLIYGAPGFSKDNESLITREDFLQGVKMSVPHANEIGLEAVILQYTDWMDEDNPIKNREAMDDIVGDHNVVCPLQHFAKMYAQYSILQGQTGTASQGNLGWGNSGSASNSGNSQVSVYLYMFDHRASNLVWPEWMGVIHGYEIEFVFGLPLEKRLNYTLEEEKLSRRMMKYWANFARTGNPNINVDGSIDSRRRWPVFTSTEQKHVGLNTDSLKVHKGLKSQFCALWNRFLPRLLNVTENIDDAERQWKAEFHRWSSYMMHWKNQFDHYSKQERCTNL
Amyloid-beta precursor protein (Homo sapiens), sequence (P05067 whole entry, the tested form may be a part): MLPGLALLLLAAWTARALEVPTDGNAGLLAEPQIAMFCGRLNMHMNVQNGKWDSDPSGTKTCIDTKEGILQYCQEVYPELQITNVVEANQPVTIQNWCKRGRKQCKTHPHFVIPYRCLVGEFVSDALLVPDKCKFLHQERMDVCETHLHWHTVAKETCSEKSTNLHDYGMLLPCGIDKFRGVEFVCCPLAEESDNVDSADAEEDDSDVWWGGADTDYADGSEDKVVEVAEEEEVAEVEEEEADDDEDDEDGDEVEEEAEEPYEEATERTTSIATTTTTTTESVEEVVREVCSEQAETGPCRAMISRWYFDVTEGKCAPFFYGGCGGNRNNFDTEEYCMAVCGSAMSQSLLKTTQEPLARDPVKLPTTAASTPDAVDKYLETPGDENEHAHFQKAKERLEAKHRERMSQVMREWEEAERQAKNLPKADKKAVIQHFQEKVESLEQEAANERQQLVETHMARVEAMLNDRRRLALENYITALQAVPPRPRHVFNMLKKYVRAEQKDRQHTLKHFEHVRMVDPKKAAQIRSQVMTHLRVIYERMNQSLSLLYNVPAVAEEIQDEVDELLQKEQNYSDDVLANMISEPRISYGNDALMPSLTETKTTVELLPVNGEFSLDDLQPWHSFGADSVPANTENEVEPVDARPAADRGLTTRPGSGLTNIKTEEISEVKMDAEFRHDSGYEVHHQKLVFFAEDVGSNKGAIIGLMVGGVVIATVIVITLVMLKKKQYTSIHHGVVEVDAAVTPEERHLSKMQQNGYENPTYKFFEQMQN
Acetylcholinesterase (Homo sapiens, UniProt P22303), sequence (P22303 whole entry): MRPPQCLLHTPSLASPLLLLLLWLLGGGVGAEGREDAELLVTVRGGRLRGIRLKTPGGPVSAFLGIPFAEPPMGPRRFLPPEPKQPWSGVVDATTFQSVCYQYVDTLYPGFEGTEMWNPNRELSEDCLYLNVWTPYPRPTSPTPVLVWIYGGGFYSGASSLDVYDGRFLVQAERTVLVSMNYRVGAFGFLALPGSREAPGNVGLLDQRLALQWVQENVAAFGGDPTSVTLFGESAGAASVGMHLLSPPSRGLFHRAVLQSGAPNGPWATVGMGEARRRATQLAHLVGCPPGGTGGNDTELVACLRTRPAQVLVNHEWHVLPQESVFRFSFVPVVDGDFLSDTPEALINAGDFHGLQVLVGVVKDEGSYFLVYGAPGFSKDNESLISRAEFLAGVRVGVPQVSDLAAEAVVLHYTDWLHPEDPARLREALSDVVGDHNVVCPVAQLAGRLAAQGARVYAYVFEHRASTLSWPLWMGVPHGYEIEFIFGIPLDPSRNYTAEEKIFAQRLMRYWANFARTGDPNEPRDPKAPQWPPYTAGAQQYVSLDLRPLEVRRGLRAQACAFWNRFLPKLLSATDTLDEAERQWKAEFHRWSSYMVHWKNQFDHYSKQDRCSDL
butyrylcholinesterase (BuChE), sequence (Q9JKC1 whole entry): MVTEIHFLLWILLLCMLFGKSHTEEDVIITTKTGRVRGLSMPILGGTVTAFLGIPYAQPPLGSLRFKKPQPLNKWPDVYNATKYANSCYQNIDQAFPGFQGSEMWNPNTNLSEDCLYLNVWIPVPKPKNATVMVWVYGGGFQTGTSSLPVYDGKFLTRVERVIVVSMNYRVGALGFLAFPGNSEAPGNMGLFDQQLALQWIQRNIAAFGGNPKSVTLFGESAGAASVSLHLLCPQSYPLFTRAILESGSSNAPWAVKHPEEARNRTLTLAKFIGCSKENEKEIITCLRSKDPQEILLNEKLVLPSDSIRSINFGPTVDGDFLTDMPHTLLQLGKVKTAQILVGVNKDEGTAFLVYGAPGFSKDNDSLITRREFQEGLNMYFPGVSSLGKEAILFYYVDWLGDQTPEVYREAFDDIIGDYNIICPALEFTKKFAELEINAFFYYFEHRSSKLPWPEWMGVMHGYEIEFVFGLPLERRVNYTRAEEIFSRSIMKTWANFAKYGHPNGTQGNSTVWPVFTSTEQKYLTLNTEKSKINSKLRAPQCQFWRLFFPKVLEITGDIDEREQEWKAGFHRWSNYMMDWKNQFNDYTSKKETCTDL

## COc1cc2c(cc1OC)C(=O)/C(=C/c1ccc(CN3CCCCC3)c(O)c1)O2
Acetylcholinesterase [1]
  IC50: 8.78 nM
Acetylcholinesterase [2]
  IC50: 21.2 nM
Acetylcholinesterase [3]
  IC50: 37.1 nM
[4]
  inhibition at 0.25 h, 50 µM: 12.9%
Acetylcholinesterase [5]
  Ki: 12 nM
[6]
  Activity: 1.66 equiv
PC-12 [7]
  Activity: Non-Toxic
PC-12 [8]
  Activity: Active
PC-12 [9]
  Activity: Active
[10]
  Activity: inactive
[11]
  Activity: Active
[12]
  Activity: Active
[13]
  Activity: Active
[14]
  Activity: 0.5 molar ratio
[15]
  inhibition: 58.1%
[16]
  inhibition: 45.1%
[17]
  inhibition at 10 µM: 15.3%
[18]
  inhibition at 10 µM: 32%
[19]
  Papp at 18 h, 100 ug/ml: 13.5 ×10⁻⁶ cm/s
